Data taken from patent publication US11332439B2, “Anthocyanin complex synthesized from date palm leaf extract” (UNITED ARAB EMIRATES UNIVERSITY, priority 2020, dated 2022).

Assay: Antioxidant activity using DPPH as a free radical (Brand-Williams method)
Type: biochemical
Settings: for antiradical power (ARP): ARP=I/EC50, larger ARP indicates a more efficient antioxidant; for time to reach steady state in reaction with DPPH*: reaction kinetics, absorbance at 515 nm, methanol
Procedure: Antioxidant activity of the co-pigmented anthocyanin complex was assessed using DPPH as a free radical according to the Brand-Williams method. Activity of the co-pigmented anthocyanin complex was compared with two known antioxidants, ascorbic acid and Trolox. Concentrations tested are expressed as moles of antioxidant per mole DPPH. Briefly, an antioxidant solution in methanol (0.1 ml) was added to 3.9 ml of a 6×10^−5 mol/L methanol DPPH* solution. The decrease in absorbance was determined at 515 nm at 0 min, 1 min, and every 15 min until the reaction reached a plateau. The extract initial DPPH* concentration (CDPPH) in the reaction medium was calculated from a calibration curve with the equation Abs515 nm=0.0765×(CDPPH)+0.1118 as determined by linear regression (R2=0.9994). For each antioxidant concentration tested, the reaction kinetics were plotted (see FIGS. 6A-6C). From these graphs, the percentage of DPPH* remaining at the steady state was determined, and the values were transferred onto another graph showing percentage of residual DPPH* at the steady state as a function of the molar ratio of antioxidant to DPPH*. Antiradical activity was defined as the amount of antioxidant necessary to decrease the initial DPPH* concentration by 50% (Efficient Concentration=EC50 (mol/L)). The results were analyzed in terms of antiradical power (ARP), with a larger ARP indicating a more efficient antioxidant (ARP=I/EC50 AO/(mol/L) DPPH*).

Structure (SMILES) | antiradical power (ARP) | time to reach steady state in reaction with DPPH*
Cc1c(C)c2c(c(C)c1O)CCC(C)(C(=O)O)O2 (stereo not shown) [Trolox] | 4.65 | less than a minute
O=C1O[C@H]([C@@H](O)CO)C(O)=C1O [ascorbic acid] | 0.329 | approximately 30 minutes
